Test results: ChEMBL document CHEMBL1201862, “PubChem BioAssay data set” (2004)
Activity calls are given as the source filed them.

What was measured:
Melanocortin receptor 4 = Melanocortin receptor 4 (Homo sapiens, UniProt P32245); format: functional, cell-based;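 also: Cell-based assay with luminescence read-out, confirmatory dose-response testing for agonist activity of biased ligands at MC4R; human U2OS cells with tagged receptor and beta-arrestin; potency of agonists that increase receptor coupling to beta-arrestin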
Chain of Melanocortin receptor 4 (P32245 whole entry): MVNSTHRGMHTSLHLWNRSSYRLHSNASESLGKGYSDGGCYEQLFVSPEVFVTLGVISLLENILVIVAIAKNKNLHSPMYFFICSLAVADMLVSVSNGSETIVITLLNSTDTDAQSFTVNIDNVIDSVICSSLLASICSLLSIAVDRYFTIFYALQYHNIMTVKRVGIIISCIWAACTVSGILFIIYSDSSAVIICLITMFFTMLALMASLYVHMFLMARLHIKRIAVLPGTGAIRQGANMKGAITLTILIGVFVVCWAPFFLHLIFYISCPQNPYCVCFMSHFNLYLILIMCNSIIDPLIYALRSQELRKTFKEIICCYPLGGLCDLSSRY

Cysteine protease ATG4B = Cysteine protease ATG4B (Homo sapiens, UniProt Q9Y4P1); format: functional;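 also: Fluorescence-based dose-response confirmation assay measuring inhibition of ATG4B activity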
Chain of Cysteine protease ATG4B (Q9Y4P1 whole entry): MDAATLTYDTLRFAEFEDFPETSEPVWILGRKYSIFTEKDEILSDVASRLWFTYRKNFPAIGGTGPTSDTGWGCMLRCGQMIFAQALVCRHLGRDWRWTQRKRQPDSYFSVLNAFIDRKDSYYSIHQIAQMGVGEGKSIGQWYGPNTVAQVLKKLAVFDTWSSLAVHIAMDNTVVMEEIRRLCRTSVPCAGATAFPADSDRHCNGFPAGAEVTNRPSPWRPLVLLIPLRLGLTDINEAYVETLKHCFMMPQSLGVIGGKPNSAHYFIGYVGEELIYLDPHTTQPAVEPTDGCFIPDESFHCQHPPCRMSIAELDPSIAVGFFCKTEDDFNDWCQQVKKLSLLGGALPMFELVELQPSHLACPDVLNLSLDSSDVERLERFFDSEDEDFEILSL

Phospholipase A2 = Phospholipase A2 (Homo sapiens, UniProt P04054); format: functional;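 also: confirmatory dose-response counterscreen on phospholipase A2, testing hits that came from an ultra-high-throughput screen for ATG4B inhibitors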
Chain of Phospholipase A2 (P04054 whole entry): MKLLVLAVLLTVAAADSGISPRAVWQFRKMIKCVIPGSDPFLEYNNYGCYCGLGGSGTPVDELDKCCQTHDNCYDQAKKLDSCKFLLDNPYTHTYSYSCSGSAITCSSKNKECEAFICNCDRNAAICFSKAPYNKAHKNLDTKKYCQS

[1] = HEp-2 cell cytotoxicity, dose response, cytotoxicity control for RSV inhibitor project, HTS (AID 2410); format: functional; settings: human respiratory syncytial virus
[2] = THP-1 cell cytotoxicity, cytotoxicity control, set 4 (AID 504911); format: functional; settings: Mycobacterium tuberculosis
[3] = target: T1, High affinity choline transporter 1 (Homo sapiens, UniProt Q9GZV3); experiment: CHT inhibitors, dose response, cell-based, 5-point CRC, membrane potential dye (AID 504840); format: functional
T1 sequence (Q9GZV3 whole entry): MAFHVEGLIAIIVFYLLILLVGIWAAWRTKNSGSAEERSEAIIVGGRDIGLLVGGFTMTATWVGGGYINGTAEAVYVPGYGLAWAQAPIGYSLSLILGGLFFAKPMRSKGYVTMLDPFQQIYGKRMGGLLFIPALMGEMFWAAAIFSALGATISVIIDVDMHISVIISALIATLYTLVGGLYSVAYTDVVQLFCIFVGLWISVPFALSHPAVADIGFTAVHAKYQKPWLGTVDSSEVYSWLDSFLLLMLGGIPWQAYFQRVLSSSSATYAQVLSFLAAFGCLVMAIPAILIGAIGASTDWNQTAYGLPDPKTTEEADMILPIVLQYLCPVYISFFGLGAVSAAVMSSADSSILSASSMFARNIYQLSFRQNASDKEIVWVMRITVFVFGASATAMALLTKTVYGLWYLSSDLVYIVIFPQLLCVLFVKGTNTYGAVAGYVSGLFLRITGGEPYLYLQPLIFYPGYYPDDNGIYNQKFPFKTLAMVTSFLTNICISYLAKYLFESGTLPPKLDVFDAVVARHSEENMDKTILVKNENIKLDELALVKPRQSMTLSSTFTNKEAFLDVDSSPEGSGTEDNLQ

[4] = target: T1, High affinity choline transporter 1; experiment: CHT inhibitors, dose response, cell-based, 10-point CRC, membrane potential dye (AID 588401); format: functional;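 also: membrane potential dye fluorescence of choline-evoked depolarization via CHT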
[5] = target: Voltage-dependent T-type calcium channel subunit alpha-1H (Homo sapiens, UniProt O95180); format: functional;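 also: channel activity triggered by adding a high calcium stimulation buffer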
[6] = target: DNA dC->dU-editing enzyme APOBEC-3A (Homo sapiens, UniProt P31941); experiment: SAR analysis of small molecule inhibitors of APOBEC3A DNA Deaminase via a fluorescence-based single-stranded DNA deaminase assay - Set 2.; format: functional; settings: read-out: IC50_Mean
Chain of DNA dC->dU-editing enzyme APOBEC-3A (P31941 whole entry): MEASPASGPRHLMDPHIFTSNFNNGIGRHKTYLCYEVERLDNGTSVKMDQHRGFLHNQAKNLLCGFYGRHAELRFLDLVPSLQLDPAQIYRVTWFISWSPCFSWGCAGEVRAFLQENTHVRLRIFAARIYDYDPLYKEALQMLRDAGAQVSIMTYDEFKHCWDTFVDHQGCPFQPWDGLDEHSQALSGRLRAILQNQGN

[7] = target: DNA dC->dU-editing enzyme APOBEC-3G (Homo sapiens, UniProt Q9HC16); experiment: SAR analysis of small molecule inhibitors of APOBEC3G DNA Deaminase via a fluorescence-based single-stranded DNA deaminase assay - Set 2.; format: functional; settings: read-out: IC50_Mean
Chain of DNA dC->dU-editing enzyme APOBEC-3G (Q9HC16 whole entry): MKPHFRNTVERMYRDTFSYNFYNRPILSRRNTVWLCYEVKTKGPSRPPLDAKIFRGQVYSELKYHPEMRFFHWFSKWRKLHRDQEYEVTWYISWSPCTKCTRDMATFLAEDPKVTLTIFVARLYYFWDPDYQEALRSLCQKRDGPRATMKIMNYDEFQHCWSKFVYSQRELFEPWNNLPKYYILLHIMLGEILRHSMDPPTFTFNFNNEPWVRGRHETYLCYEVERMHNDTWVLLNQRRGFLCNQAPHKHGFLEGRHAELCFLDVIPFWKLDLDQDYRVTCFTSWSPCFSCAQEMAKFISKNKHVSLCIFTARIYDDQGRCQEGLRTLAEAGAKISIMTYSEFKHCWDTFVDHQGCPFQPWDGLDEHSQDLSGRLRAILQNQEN

Interleukin-8 [8] = target: T2, Interleukin-8 (Homo sapiens, UniProt P10145); experiment: Dose Response confirmation of uHTS small molecule hits for cystic fibrosis induced NFkb Inhibitors in a TNFa-induced IL8 counterscreen.; format: functional; settings: read-out: IC50_Mean
T2 sequence (P10145 whole entry): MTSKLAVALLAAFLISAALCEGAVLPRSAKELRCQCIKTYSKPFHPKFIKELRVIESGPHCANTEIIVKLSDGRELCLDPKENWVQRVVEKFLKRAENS

Interleukin-8 [9] = target: T2, Interleukin-8; experiment: Dose Response confirmation of uHTS small molecule hits for cystic fibrosis induced NFkb Inhibitors in a PAF-induced IL8 counterscreen.; format: functional; settings: read-out: IC50_Mean
HEK293 = experiment: inhibitors of LMP1-driven NF-kB reporter, dose response, cell-based, HEK293, luciferase, cherry-pick (AID 588343); format: functional; settings: Homo sapiens
[10] = target: T3, Carboxy-terminal domain RNA polymerase II polypeptide A small phosphatase 1 (Homo sapiens, UniProt Q9GZU7); experiment: inhibitors of CTDSP1, concentration-response testing, biochemical assay, absorbance-based, actives from ultra-high-throughput screening (AID 540297); format: functional
T3 sequence (Q9GZU7 whole entry): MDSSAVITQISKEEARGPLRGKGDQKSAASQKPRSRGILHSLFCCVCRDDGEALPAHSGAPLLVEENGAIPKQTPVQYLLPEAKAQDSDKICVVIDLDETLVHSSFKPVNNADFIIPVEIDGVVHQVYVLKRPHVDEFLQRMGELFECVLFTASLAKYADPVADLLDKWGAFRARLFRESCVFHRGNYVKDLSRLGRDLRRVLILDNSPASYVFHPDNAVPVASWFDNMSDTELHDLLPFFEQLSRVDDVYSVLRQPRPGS

[11] = target: DNA (cytosine-5)-methyltransferase 1 (Homo sapiens, UniProt P26358); experiment: DNMT1 methyltransferase inhibitors, confirmation, biochemical, fluorescent molecular beacon (AID 602386); format: functional
Chain of DNA (cytosine-5)-methyltransferase 1 (P26358 whole entry): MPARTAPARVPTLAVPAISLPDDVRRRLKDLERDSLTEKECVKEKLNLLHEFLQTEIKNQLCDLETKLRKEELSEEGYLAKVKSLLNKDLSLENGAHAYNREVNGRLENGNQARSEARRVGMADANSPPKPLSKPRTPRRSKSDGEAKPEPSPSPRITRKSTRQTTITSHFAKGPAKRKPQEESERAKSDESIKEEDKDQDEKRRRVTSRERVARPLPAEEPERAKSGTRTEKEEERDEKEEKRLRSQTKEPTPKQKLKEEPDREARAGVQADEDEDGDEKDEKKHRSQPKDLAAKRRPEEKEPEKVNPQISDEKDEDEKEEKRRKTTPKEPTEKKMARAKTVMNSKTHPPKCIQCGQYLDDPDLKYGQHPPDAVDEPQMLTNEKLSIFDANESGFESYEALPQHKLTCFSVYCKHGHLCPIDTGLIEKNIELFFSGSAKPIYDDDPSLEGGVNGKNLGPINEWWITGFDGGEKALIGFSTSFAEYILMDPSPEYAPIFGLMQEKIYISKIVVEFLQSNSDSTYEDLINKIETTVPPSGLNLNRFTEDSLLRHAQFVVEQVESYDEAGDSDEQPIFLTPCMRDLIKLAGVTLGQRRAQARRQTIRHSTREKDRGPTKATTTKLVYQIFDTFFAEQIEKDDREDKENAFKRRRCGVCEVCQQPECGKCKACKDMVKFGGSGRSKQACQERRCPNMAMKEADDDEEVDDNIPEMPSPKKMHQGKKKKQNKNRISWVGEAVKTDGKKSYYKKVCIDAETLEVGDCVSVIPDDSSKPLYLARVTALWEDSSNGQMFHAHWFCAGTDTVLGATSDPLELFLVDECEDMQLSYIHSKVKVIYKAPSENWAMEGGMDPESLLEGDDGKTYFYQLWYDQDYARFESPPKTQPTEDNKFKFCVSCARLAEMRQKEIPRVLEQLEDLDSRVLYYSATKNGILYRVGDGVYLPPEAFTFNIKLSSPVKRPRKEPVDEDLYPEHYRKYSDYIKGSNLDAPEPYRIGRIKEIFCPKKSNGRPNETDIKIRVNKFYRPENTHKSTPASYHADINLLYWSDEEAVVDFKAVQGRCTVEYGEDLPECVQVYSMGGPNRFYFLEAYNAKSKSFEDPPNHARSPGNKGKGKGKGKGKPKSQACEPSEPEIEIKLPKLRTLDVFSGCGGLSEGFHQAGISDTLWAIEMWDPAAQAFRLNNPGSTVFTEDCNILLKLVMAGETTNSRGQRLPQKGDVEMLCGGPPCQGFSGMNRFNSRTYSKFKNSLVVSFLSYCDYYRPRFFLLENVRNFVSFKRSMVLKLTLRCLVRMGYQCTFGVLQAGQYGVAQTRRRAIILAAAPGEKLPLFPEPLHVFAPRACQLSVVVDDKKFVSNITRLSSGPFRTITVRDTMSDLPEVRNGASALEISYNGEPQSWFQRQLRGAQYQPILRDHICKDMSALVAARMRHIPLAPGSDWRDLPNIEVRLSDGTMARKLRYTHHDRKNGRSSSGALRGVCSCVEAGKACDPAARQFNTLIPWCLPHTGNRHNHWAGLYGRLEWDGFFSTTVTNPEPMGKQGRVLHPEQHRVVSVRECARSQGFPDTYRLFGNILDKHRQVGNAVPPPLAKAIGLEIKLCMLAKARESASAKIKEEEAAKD

## Cc1ccc2[nH]c(=O)c3cc(C(=O)N(CCCOC(C)C)Cc4ccco4)sc3c2c1
Melanocortin receptor 4
  EC50: > 89.2 µM (inactive)

## O=C(CCCn1c(=S)[nH]c2cc3c(cc2c1=O)OCO3)N1CCN(c2ccc(F)cc2)CC1
Cysteine protease ATG4B
  IC50: 13.5 µM (active)
Phospholipase A2
  IC50: 7.34 µM (active)
[1]
  CC50: 26.2 µM (active)

## O=C(CSc1nccc(=O)[nH]1)NC1CCCCC1
[2]
  CC50: > 100 µM (active)

## O=C(Nc1nnc(C(F)(F)F)s1)C1COc2ccccc2O1 (stereo not given)
[3]
  IC50: 1.55 µM (active)
[4]
  IC50: 1.26 µM (active)
[5]
  EC50: 6.26 µM (active)

## CN(Cc1ccccc1)C(=O)c1nn2cccnc2c1Cl
[6]
  IC50: 73.8 µM (inactive)
[7]
  IC50: > 99 µM (inactive)

## Cc1cc(N2CCOCC2)c2c(N)c(Br)cc(C)c2n1
Interleukin-8 [8]
  IC50: > 79 µM (inactive)
Interleukin-8 [9]
  IC50: 8.34 µM (active)
HEK293
  AC50: 8.08 µM (active)

## COc1cc(/C=C(\CCC(=O)O)c2nc3ccccc3s2)ccc1OCC(=O)Nc1c(Cl)cccc1Cl
[10]
  IC50: 2.3 µM (active)
[11]
  IC50: 10.1 µM (active)
